Here are results for 81 compounds from paper PMC12040169 (PLOS Biology, 2025).

SMILES strings stand for the structures.

As a reminder, the viability is a read-out of living cells in per cent, often relative to untreated cells.

The series is described as follows: in vitro. The settings on record: human, hela cells, % viability.

Take `OC(CNc1nccnc1-c1ccco1)COc1ccccc1` (stereo not drawn) [CBK036862]: the viability at 28.5 h, 10 µM is 96.7%.

For the compound `C=CCOC(=O)N1CCC(C(=O)N(C)C(c2cccc(OC)c2)c2ccccn2)CC1` (stereo not drawn) [CBK060244], the viability at 28.5 h, 10 µM came to 91.5%.

`CCN(Cc1cnn(C)c1)S(=O)(=O)c1ccc2c(c1)CCCC(=O)N2` [CBK304782]: the viability at 28.5 h, 10 µM is 100%.

As for `O=C(CSc1nc2sc3c(c2c(=O)n1Cc1ccco1)CCC3)NCc1ccco1` [CBK268499], the viability at 28.5 h, 10 µM was found to be 101%.

With `CCN(CCCCC1NC(=O)NC1=O)Cc1ccncc1` (stereo not drawn) [CBK143967], the viability at 28.5 h, 10 µM is 89.1%.

On to `Cc1cc2c(s1)c1cnn(Cc3ccccn3)c(=O)c1n2C` [CBK284227], for which the viability at 28.5 h, 10 µM turned out to be 65.4%.

Regarding `COc1ccccc1Nc1nc(N2CCOCC2)nc(N2CCOCC2)n1` [CBK287731], the viability at 28.5 h, 10 µM came to 111%.

In the case of `COC(=O)CCCC(=O)n1ccn(-c2cccc(C(F)(F)F)c2)c1=O` [CBK106580], the viability at 28.5 h, 10 µM worked out at 87.6%.

On to `COc1cc(CC(=O)N2CCc3c(sc4ncnc(N)c34)C2)ccc1C` [CBK306013], for which the viability at 28.5 h, 10 µM amounted to 103%.

With `CCOc1ccc(NC(=O)C(C)Sc2nc3ccc(F)cc3[nH]2)cc1` (stereo not drawn) [CBK266047], the viability at 28.5 h, 10 µM stood at 107%.

For the compound `COc1cc(C(=O)NN)cc(OC)n1` [CBK012275], the viability at 28.5 h, 10 µM amounted to 83.7%.

For the compound `O=C(O)CCC(=O)Nc1ccccc1C(=O)O` [CBK261325], the viability at 28.5 h, 10 µM came out at 91.1%.

On to `CC(=O)Nc1cccc(-c2nccnc2NCC2CC2)c1` [CBK037962], for which the viability at 28.5 h, 10 µM came to 90.4%.

For `Cc1onc(-c2ccccc2)c1CNC(=O)c1ccco1` [CBK144074], the viability at 28.5 h, 10 µM turned out to be 90.5%.

Regarding `CC(C)C1SC(=NC2CC3CCC2C3)N(C)C1=O` (stereo not drawn) [CBK076727], the viability at 28.5 h, 10 µM came to 90.6%.

In the case of `O=C(O)c1sccc1S(=O)(=O)Nc1ccc(Cc2nc3ccccc3s2)cc1` [CBK295286], the viability at 28.5 h, 10 µM came to 92.8%.

For the compound `CCOC(=O)COc1ccc(/C=C2/SC(=S)N(c3cccc(C(=O)O)c3)C2=O)cc1` [CBK265632], the viability at 28.5 h, 10 µM worked out at 107%.

For `CN1[C@@H](CCC(=O)NCc2ccc(F)cc2)CNC(=O)[C@@H]2[C@H]1CCN2C1CCOCC1` [CBK289023], the viability at 28.5 h, 10 µM is 106%.

With `C1C/C(=N/N=C2\CCCc3nonc32)c2nonc2C1` [CBK006721], the viability at 28.5 h, 10 µM was 93.9%.

As to `Cc1cc(=O)nc(N/C(N)=N/c2cccc([N+](=O)[O-])c2)[nH]1` [CBK264857], the viability at 28.5 h, 10 µM stood at 102%.

Regarding `Cc1noc(C)c1C(=O)N1CCC(c2nc(C)n3ccsc23)CC1` [CBK285239], the viability at 28.5 h, 10 µM was 101%.

For the compound `O=C(O)CCC(=O)Nc1ccc(Br)cc1C(=O)c1ccccc1` [CBK262610], the viability at 28.5 h, 10 µM was determined as 114%.

Regarding `O=C(O)c1ccc(OCCN2C3=NCCN3c3ccccc32)cc1` [CBK286629], the viability at 28.5 h, 10 µM was determined as 93%.

On to `CN1CCC(OC(=O)COc2ccc(Cl)cc2Cl)CC1` [CBK266389C], for which the viability at 28.5 h, 10 µM was 91%.

With `Cn1c(=O)oc2ccccc2c1=O` [CBK015658], the viability at 28.5 h, 10 µM is 100%.

Consider `CCn1c(C)nnc1SCCNC(=O)c1cnc(N(C)C)nc1C` [CBK307135], for which the viability at 28.5 h, 10 µM is 93%.

As to `NC(=O)c1ccc(-c2nccnc2NCc2ccc3c(c2)OCO3)cc1` [CBK036696], the viability at 28.5 h, 10 µM amounted to 91.3%.

Regarding `O=C(CCn1c(=O)oc2ccccc21)Nc1ccncc1` [CBK287466], the viability at 28.5 h, 10 µM amounted to 92.5%.

As to `Cc1ccc(C(C)(C)CC(C)NCc2ccc(Cl)cc2)o1` (stereo not drawn) [CBK262873], the viability at 28.5 h, 10 µM was 95.8%.

For `c1ccc(Oc2cccc(CN3CCN(c4ccccn4)CC3)c2)cc1` [CBK261523], the viability at 28.5 h, 10 µM was found to be 102%.

Turning to `CN(C)CCn1nc(-c2cccc(-n3cccc3)c2)oc1=O` [CBK284002], the viability at 28.5 h, 10 µM was 94.2%.

On to `N#Cc1c2c(c(Nc3ccc(C4CCCCC4)cc3)n3c1nc1ccccc13)CCC2` [CBK263122], for which the viability at 28.5 h, 10 µM was found to be 95.1%.

As for `COc1ccc(-n2cnc3ccccc3c2=O)cc1` [CBK288145], the viability at 28.5 h, 10 µM came out at 94.4%.

For the compound `CCOc1cc(NC2CCN(C(=O)CC3CCCCC3)CC2)ncn1` [CBK305506], the viability at 28.5 h, 10 µM is 104%.

With `NS(=O)(=O)c1ccc(CCNC(=O)c2ccc([N+](=O)[O-])cc2)cc1` [CBK263773], the viability at 28.5 h, 10 µM was 104%.

Regarding `CCC(CN1CCOCC1)NC(=O)Cc1ccc2c(c1)CCC2` (stereo not drawn) [CBK282810], the viability at 28.5 h, 10 µM was found to be 114%.

Consider `O=C(CSc1ccccn1)Nc1ccc2ccccc2c1` [CBK263860], for which the viability at 28.5 h, 10 µM was 101%.

As for `O=S(=O)(Nc1ccccn1)N1CCCCC1` [CBK269490], the viability at 28.5 h, 10 µM came out at 92.3%.

Take `Cc1ccc(OC(C)C(=O)NCc2ccccc2)cc1` (stereo not drawn) [CBK269016]: the viability at 28.5 h, 10 µM came to 101%.

Consider `CC(C)n1c(NCc2ccccc2)nc2c1c(=O)n(C)c(=O)n2C` [CBK140094], for which the viability at 28.5 h, 10 µM was 78.2%.

Regarding `O=C(Cn1c(NCCO)nc2ccccc21)C12CC3CC(CC(C3)C1)C2` [CBK262129B], the viability at 28.5 h, 10 µM turned out to be 85.4%.

For the compound `CC(C(=O)Nc1cccc(F)c1)N1CCN(Cc2cccnc2)CC1` (stereo not drawn) [CBK305408], the viability at 28.5 h, 10 µM is 109%.

On to `O=P(O)(CN1CCCCCC1)CN1CCCCCC1` [CBK262311], for which the viability at 28.5 h, 10 µM is 92.1%.

Take `Cc1cc(C[C@@H]2COC[C@H]2NCc2ccc(C(F)(F)F)cc2)on1` [CBK285463]: the viability at 28.5 h, 10 µM was 107%.

For `COc1ncccc1C(=O)N1Cc2ccccc2C1` [CBK200324], the viability at 28.5 h, 10 µM came to 101%.

As for `O=C(O)CN1CCC(Oc2nccnc2OCc2ccc(Cl)c(Cl)c2)CC1` [CBK144443], the viability at 28.5 h, 10 µM turned out to be 97%.

For `Cc1ccc(-c2noc(CN(C(=O)c3ccc(Br)o3)C(C)C)n2)cc1` [CBK269440], the viability at 28.5 h, 10 µM was 83.2%.

As for `CC(=O)N1CCC2(C/C=C/C[C@H]3CN(C(=O)CC4CCOCC4)CC[C@H]3NC(=O)CNC2=O)CC1` [CBK292109], the viability at 28.5 h, 10 µM turned out to be 98.8%.

Take `CCCn1c(C)cc(-c2csc(NC(=O)CCn3c(-c4cccs4)n[nH]c3=S)n2)c1C` [CBK295326]: the viability at 28.5 h, 10 µM is 90.8%.

`COc1ccccc1N1CCN(C(=O)CN2C(=O)c3ccccc3C2=O)CC1` [CBK091501]: the viability at 28.5 h, 10 µM amounted to 95.5%.

As for `Cc1nn(Cc2ccc(Cl)cc2)c(C)c1NC(=O)CCC(=O)O` [CBK287051], the viability at 28.5 h, 10 µM was 88.5%.

`C#CCNC(=O)N(C)C1CCN(c2ncnc3ccccc23)CC1` [CBK306109]: the viability at 28.5 h, 10 µM amounted to 97.6%.

`O=C(N[C@H]1C[C@H]2C(=O)Nc3ccc(-c4ccsc4)cc3C(=O)N2C1)c1ccccc1` [CBK289361]: the viability at 28.5 h, 10 µM amounted to 91%.

`CC1CCN(C(=O)C2CC(=O)N(c3ccc(C(=O)O)cc3)C2)CC1` (stereo not drawn) [CBK286568]: the viability at 28.5 h, 10 µM was 87.6%.

As for `OCC(CO)(CO)NCc1ccc(-c2ccccc2)cc1` [CBK268742C], the viability at 28.5 h, 10 µM stood at 93.2%.

Regarding `Cc1ccc(C2=NO[C@@](CC(=O)O)(C(=O)Nc3ccc4c(c3)OCCO4)C2)cc1` [CBK286653], the viability at 28.5 h, 10 µM was 85.1%.

In the case of `CCOC(=O)c1cn(CC)c2cc(N3CCOCC3)c(F)cc2c1=O` [CBK307142], the viability at 28.5 h, 10 µM is 95.7%.

For `COc1ccc(C(=O)NC(c2ccco2)c2cc(Cl)c3cccnc3c2O)cc1` (stereo not drawn) [CBK263964], the viability at 28.5 h, 10 µM was 91.9%.

With `O=C(NCc1ccc(Cl)cc1)N1CCN(CCc2ccccc2)CC1` [CBK158922], the viability at 28.5 h, 10 µM worked out at 90.7%.

For the compound `CCn1ncc2c1CCCC2NC1CCN(c2ccc(C#N)cc2)C1=O` (stereo not drawn) [CBK305200], the viability at 28.5 h, 10 µM worked out at 96.8%.

On to `Nc1c(C(=O)NCc2ccco2)c2nc3ccccc3nc2n1C1CCCC1` [CBK269323], for which the viability at 28.5 h, 10 µM came out at 106%.

For `Nc1cc(N)nc(SCC(=O)Nc2nonc2N)n1` [CBK267522], the viability at 28.5 h, 10 µM was 89.1%.

In the case of `COc1cncc(C(NC(=O)Cn2ccccc2=O)[C@H]2C[C@@H](O)C2)c1` (stereo partly drawn) [CBK307557], the viability at 28.5 h, 10 µM turned out to be 92.5%.

Take `O=[N+]([O-])c1ccc(CN2CCC(Oc3nccnc3OCC3COc4ccccc4O3)CC2)cc1` (stereo not drawn) [CBK082984T]: the viability at 28.5 h, 10 µM is 99.1%.

As to `COc1ccc(C(=O)N[C@H]2C[C@H]3C(=O)Nc4ccccc4C(=O)N3C2)cc1` [CBK289355], the viability at 28.5 h, 10 µM stood at 84.7%.

For `O=C(Nc1ccc(F)c(C(F)(F)F)c1)c1cncc(-c2ccc(C(=O)N3CCOCC3)cc2)c1` [CBK160216], the viability at 28.5 h, 10 µM came out at 88.2%.

Regarding `O=C(CC1(O)C(=O)Nc2ccccc21)CC1(O)C(=O)Nc2ccccc21` (stereo not drawn) [CBK263705], the viability at 28.5 h, 10 µM was determined as 93.1%.

On to `O=S(=O)(NCC(c1ccccc1)N1CCNCC1)c1ccccc1` (stereo not drawn) [CBK262813], for which the viability at 28.5 h, 10 µM is 105%.

`O=C1c2cccc3cccc(c23)C(=O)N1CCCSc1nnc(-c2ccncc2)n1-c1ccccc1` [CBK268684]: the viability at 28.5 h, 10 µM was found to be 91%.

As to `O=C1N=C(NC2CCCCCC2)SC1CC(=O)N1CCCC1` (stereo not drawn) [CBK063342], the viability at 28.5 h, 10 µM turned out to be 95.3%.

On to `O=C(NC1CCCC1)c1ccc(-n2ccnc2)c(-n2cccc2)c1` [CBK285368], for which the viability at 28.5 h, 10 µM was determined as 94.1%.

For the compound `Cc1ccc([N+](=O)[O-])cc1NC1OC(C(O)CO)C(O)C1O` (stereo not drawn) [CBK262031], the viability at 28.5 h, 10 µM was found to be 98%.

`O=C(Nc1ccc(O)cc1)c1cnc(-c2ccc(Cl)cc2)c(-c2cccnc2)c1` [CBK037516]: the viability at 28.5 h, 10 µM worked out at 94.7%.

With `COC(=O)c1ccc(Nc2cccc(-c3cccc(N)c3)n2)cc1OC` [CBK037619], the viability at 28.5 h, 10 µM worked out at 102%.

Turning to `CCn1nc(C)c(NC(=O)CN(C)Cc2ccccc2C(F)(F)F)c1C` [CBK306771], the viability at 28.5 h, 10 µM came to 106%.

As for `O=C1NCC2(C/C=C/CCOc3ccccc31)CCNCC2` [CBK292178], the viability at 28.5 h, 10 µM amounted to 104%.

As to `FC(F)Oc1ccc(-c2ccnc(S)n2)cc1` [CBK288385], the viability at 28.5 h, 10 µM came to 91.9%.

`CC(C)(C)c1cc(CN2CCN(CCO)CC2)cc(C(C)(C)C)c1O` [CBK261753]: the viability at 28.5 h, 10 µM was 95.4%.

With `Cc1ccc(CCC(=O)Nc2nc3c(cc2C#N)CCC3)o1` [CBK306366], the viability at 28.5 h, 10 µM stood at 67.1%.

As for `COC(=O)c1sc2cc(C(F)(F)F)cnc2c1-c1ccccn1` [CBK089888], the viability at 28.5 h, 10 µM amounted to 93.2%.

For `O=C(O)c1ccccc1C(=O)Nc1ccc(Oc2cccc3ccccc23)cc1` [CBK265131], the viability at 28.5 h, 10 µM was 84.9%.
